For orientation: melting point means the temperature, or range, at which the solid turns liquid.

As to `COc1ccc(-c2noc(-c3cccc(C(=O)O)c3)n2)cc1` [Compound 509], the melting point was 281.5 to 283 °C.

With `O=C(O)c1cccc(-c2nc(-c3ccc4c(c3)OCO4)no2)c1` [Compound 510], the melting point lay in the range of 245 to 246 °C.

The compound `O=C(O)c1cccc(-c2nc(-c3ccc(OC(F)(F)F)cc3)no2)c1` [Compound 511] showed a melting point of 217 to 218 °C.

Compound `Cc1ccc(-c2noc(-c3cccc(C(=O)O)c3)n2)cc1` [Compound 512] yielded a melting point of 243 to 244 °C.

As for `O=C(O)c1cccc(-c2nc(-c3ccc(C(F)(F)F)cc3)no2)c1` [Compound 513], the melting point lay in the range of 249.5 to 251 °C.

Take `O=C(O)c1ccc(-c2cc(-c3ccccc3F)on2)cc1` [Compound 529]: the melting point fell in the range of 292.5 to 293.5 °C.

`O=C(O)c1ccc(-c2cc(-c3ccc(F)cc3)on2)cc1` [Compound 530]: the melting point was in the range of 318 to 319 °C.

`O=C(O)c1ccc(-c2cc(-c3ccc(F)cc3F)on2)cc1` [Compound 531] yielded a melting point of 317 to 319 °C.

In the case of `COc1ccc(-c2cc(-c3ccc(C(=O)O)cc3)no2)cc1` [Compound 532], the melting point was in the range of 298 to 300 °C.

`O=C(O)c1ccc(-c2cc(-c3ccc(Cl)cc3)on2)cc1` [Compound 533] had a melting point of 273 to 275 °C.

Consider `Cc1ccc(-c2cc(-c3ccc(C(=O)O)cc3)no2)cc1` [Compound 534], for which the melting point was in the range of 297.5 to 299 °C.

Regarding `O=C(O)c1ccc(-c2cc(-c3ccccc3F)no2)cc1` [Compound 535], the melting point was 302 to 303 °C.

`O=C(O)c1ccc(-c2cc(-c3cccc(F)c3)no2)cc1` [Compound 536] registered a melting point of 319 to 321 °C.

`O=C(O)c1ccc(-c2cc(-c3ccc(F)cc3)no2)cc1` [Compound 537]: the melting point lay in the range of 322 to 323 °C.

With `O=C(O)c1ccc(-c2cc(-c3ccc(F)cc3F)no2)cc1` [Compound 538], the melting point was in the range of 324 to 326 °C.

With `COc1ccc(-c2cc(-c3ccc(C(=O)O)cc3)on2)cc1` [Compound 539], the melting point lay in the range of 297.5 to 299.5 °C.

As for `O=C(O)c1ccc(-c2cc(-c3ccc(Cl)cc3)no2)cc1` [Compound 540], the melting point lay within 320.5 to 322.5 °C.

As for `Cc1ccc(-c2cc(-c3ccc(C(=O)O)cc3)on2)cc1` [Compound 541], the melting point lay in the range of 307 to 308 °C.

`O=C(O)c1ccc(-c2ncc(-c3cccc(OC(F)(F)F)c3)o2)cc1` [Compound 542] gave a melting point of 284 to 285 °C.

`O=C(O)c1ccc(-c2ncc(-c3cccc(C(F)(F)F)c3)o2)cc1` [Compound 543] yielded a melting point of 286 to 287 °C.

The compound `COc1cccc(-c2cnc(-c3ccc(C(=O)O)cc3)o2)c1` [Compound 544] gave a melting point of 240 to 242 °C.

`O=C(O)c1ccc(-c2ncc(-c3ccc(OC(F)(F)F)cc3)o2)cc1` [Compound 546]: the melting point was in the range of 222 to 224 °C.

Turning to `COc1ccc(-c2cnc(-c3ccc(C(=O)O)cc3)o2)cc1OC` [Compound 547], the melting point lay in the range of 241 to 243 °C.

In turn, `O=C(O)c1ccc(-c2ncc(-c3cccc(F)c3F)o2)cc1` [Compound 549] yielded a melting point of 295 to 296 °C.

`O=C(O)c1ccc(-c2ncc(-c3ccccc3F)o2)cc1` [Compound 550]: the melting point was 272 to 273 °C.

Take `COc1cccc(-c2cc(-c3cccc(C(=O)O)c3)n[nH]2)c1` [Compound 551]: the melting point lay in the range of 238 to 239 °C.

Consider `O=C(O)c1ccc(-c2ncc(-c3cccc(F)c3)o2)cc1` [Compound 553], for which the melting point lay within 264 to 265 °C.

Regarding `O=C(O)c1ccc(-c2ncc(-c3ccc(F)cc3)o2)cc1` [Compound 554], the melting point lay in the range of 245 to 246 °C.

Turning to `O=C(O)c1ccc(-c2ncc(-c3ccccc3Cl)o2)cc1` [Compound 555], the melting point was in the range of 276 to 277 °C.

`O=C(O)c1ccc(-c2ncc(-c3cccc(Cl)c3)o2)cc1` [Compound 556] yielded a melting point of 272 to 274 °C.

For `O=C(O)c1ccc(-c2ncc(-c3ccc4c(c3)OCO4)o2)cc1` [Compound 557], the melting point lay in the range of 269 to 270 °C.

`O=C(O)c1ccc(-c2ncc(-c3ccsc3)o2)cc1` [Compound 558] yielded a melting point of 246 to 247 °C.

`Cc1ccc(-c2cc(-c3cccc(C(=O)O)c3)no2)cc1` [Compound 573]: the melting point fell in the range of 257 to 259 °C.

`O=C(O)c1cccc(-c2cc(-c3ccc(C(F)(F)F)cc3)on2)c1` [Compound 574] registered a melting point of 281 to 282 °C.

Turning to `O=C(O)c1cccc(-c2cc(-c3ccc(CO)cc3)on2)c1` [Compound 575], the melting point was 248 to 250 °C.

In turn, `O=C(O)c1cccc(-c2ncc(-c3ccccc3F)o2)c1` [Compound 579] gave a melting point of 228 to 229 °C.

Take `O=C(O)c1cccc(-c2ncc(-c3cccc(F)c3)o2)c1` [Compound 580]: the melting point fell in the range of 223 to 224.5 °C.

The compound `O=C(O)c1cccc(-c2ncc(-c3ccc(F)cc3)o2)c1` [Compound 581] yielded a melting point of 255 to 256 °C.

As to `O=C(O)c1cccc(-c2ncc(-c3ccccc3Cl)o2)c1` [Compound 582], the melting point is 236 to 237 °C.

As for `O=C(O)c1cccc(-c2ncc(-c3cccc(Cl)c3)o2)c1` [Compound 583], the melting point is 220 to 222 °C.

Regarding `O=C(O)c1cccc(-c2ncc(-c3ccccc3C(F)(F)F)o2)c1` [Compound 584], the melting point is 218 to 219 °C.

The compound `O=C(O)c1cccc(-c2ncc(-c3cccc(C(F)(F)F)c3)o2)c1` [Compound 585] registered a melting point of 250 to 251.5 °C.

The compound `O=C(O)c1cccc(-c2ncc(-c3ccc(C(F)(F)F)cc3)o2)c1` [Compound 586] returned a melting point of 223.5 to 225 °C.

In turn, `O=C(O)c1cccc(-c2ncc(-c3cccc(OC(F)(F)F)c3)o2)c1` [Compound 587] returned a melting point of 210 to 211 °C.

With `Cc1ccccc1-c1cnc(-c2cccc(C(=O)O)c2)o1` [Compound 588], the melting point is 207 to 208 °C.

`Cc1cccc(-c2cnc(-c3cccc(C(=O)O)c3)o2)c1` [Compound 589]: the melting point is 194 to 195 °C.

In the case of `CCc1ccc(-c2cnc(-c3cccc(C(=O)O)c3)o2)cc1` [Compound 590], the melting point is 174 to 175 °C.

Compound `CC(C)c1cccc(-c2cnc(-c3cccc(C(=O)O)c3)o2)c1` [Compound 591] gave a melting point of 213 to 215 °C.

`CC(C)(C)c1ccc(-c2cnc(-c3cccc(C(=O)O)c3)o2)cc1` [Compound 592]: the melting point lay within 224 to 225 °C.

On to `COc1ccccc1-c1cnc(-c2cccc(C(=O)O)c2)o1` [Compound 593], for which the melting point lay in the range of 244 to 246 °C.

`COc1cccc(-c2cnc(-c3cccc(C(=O)O)c3)o2)c1` [Compound 594] returned a melting point of 207 to 208 °C.

As for `O=C(O)c1ccc(-c2nnc(-c3ccccc3)o2)cc1` [Compound 596], the melting point is more than 275 °C.

With `CN(C)c1ccccc1-c1nnc(-c2ccc(C(=O)O)cc2)o1` [Compound 601], the melting point fell in the range of 177 to 178 °C.

Regarding `CN(C)c1ccccc1-c1nnc(-c2cccc(C(=O)O)c2)o1` [Compound 605], the melting point fell in the range of 170 to 172 °C.

Regarding `CN(C)c1ccc(-c2nnc(-c3ccccc3C(=O)O)o2)cc1` [Compound 606], the melting point was in the range of 197 to 200 °C.

The values above are taken from patent US9611230B2, “1,3,4-oxadiazole benzoic acid compounds and their use for nonsense suppression and the treatment of disease” (PTC Therapeutics, Inc., priority 2004, dated 2017).
